Measurements: patent US20180185408A1, “ANTIFUNGAL NYLON-3 POLYMERS AND COMBINATION THERAPY USING THEM TO TREAT FUNGAL INFECTIONS” (priority 2016, published 2018)
Converted amounts (≈) assume the structure as drawn. “And” between values parts separate entries of the source, which are not always exact repeats. Equal values may be shown once. Read-outs that look alike come from different tables or passages of the source.

Tests used:
P. murina = assay: Pneumocystis ATP assay (ATP-lite M); type: cell-based, Pneumocystis murina
P. carinii = assay: Pneumocystis ATP assay (ATP-lite M); type: cell-based, Pneumocystis carinii
[1] = test system: Scedosporium apoiospermum; assay: MIC100 against filamentous fungi (CLSI M38-A2); type: cell-based; settings: for polymer efficacy against filamentous fungi, 100%: Clinical isolate
B. dermatitidis = assay: MIC80 against dimorphic fungi (CLSI M38-A2); type: cell-based; settings: Blastomyces dermatitidis
Fusarium oxysporum = assay: MIC100 against filamentous fungi (CLSI M38-A2); type: cell-based; settings: for polymer efficacy against filamentous fungi, 100%: Clinical isolate; for MIC: Fusarium oxysporum
Coccidioides spps. = assay: microbe, parasite or virus in culture; type: cell-based
Paecilomyces variotii = assay: MIC100 against filamentous fungi (CLSI M38-A2); type: cell-based
Aspergillus fumigatus [2] = test system: Aspergillus fumigatus
H. capsulatum = assay: microbe, parasite or virus in culture; type: cell-based; settings: Histoplasma capsulatum
Scedosporium prolificans = assay: MIC100 against filamentous fungi (CLSI M38-A2); type: cell-based
P. marneffei mold = assay: MIC by broth microdilution (EUCAST-AST-[…]); type: cell-based; settings: 1.00×10^5 cells/mL, 35° C.
Aspergillus terreus [3] = assay: microbe, parasite or virus in culture
Aspergillus terreus [4] = settings: A. terreus; RPMI 1640 (0.2% Glucose); 1.00×10^5 cells/mL; 35° C.
Rhizopus arrhizus = assay: MIC100 against filamentous fungi (CLSI M38-A2); type: cell-based; settings: for polymer efficacy against filamentous fungi, 100%: Clinical isolate
Aspergillus spp. = assay: microbe, parasite or virus in culture
Aspergillus fumigatus [5] = assay: Checkerboard microdilution synergy (FIC); type: cell-based; settings: for MIC: Aspergillus fumigatus; for MIC azole combination: POS in combination with MM:TM
Aspergillus fumigatus [6] = assay: microbe, parasite or virus in culture
[7] = MM:TM with posaconazole, isolate CEA10 (Sensitive), […] 10^5 cells/mL
[8] = MM:TM with posaconazole, isolate F11628 (Resistance), […] 10^5 cells/mL
[9] = MM:TM with posaconazole, isolate F16216 (Resistance), […] 10^5 cells/mL

N=C(N)c1ccc(OCCCCCOc2ccc(C(=N)N)cc2)cc1 [Pentamidine]
P. murina % reduction in ATP/vehicle control (P. murina; 1 ug/mL, 24 hour): 90.80% | P. murina % reduction in ATP/vehicle control (P. murina; 1 ug/mL, 48 hr): 84.39% | P. murina % reduction in ATP/vehicle control (P. murina; 1 ug/mL, 72 hr): 91.86% | P. carinii % reduction in ATP/vehicle control (P. carinii; 1 ug/mL, 24 hour): 86.79% | P. carinii % reduction in ATP/vehicle control (P. carinii; 1 ug/mL, 48 hr): 87.62% | P. carinii % reduction in ATP/vehicle control (P. carinii; 1 ug/mL, 72 hr): 95.23%

C[C@@H](c1ncncc1F)[C@](O)(Cn1cncn1)c1ccc(F)cc1F [VOR, voriconazole]
polymer efficacy against filamentous fungi, 100% ([1]; S. apiopsermum SA1, Toe): 1 | polymer efficacy against filamentous fungi, 100% ([1]; S. apiopsermum SA2, Elbow Tissue): 1 | MIC ([1]; Scedosporium apiopsermum isolate SA1): 1 µg/mL (≈ 2.86 µM) | MIC100 ([1]; Scedosporium apiopsermum isolate SA2): 1 µg/mL (≈ 2.86 µM) | MIC80 (B. dermatitidis; Blastomyces dermatitidis isolate BD1): ≤ 0.03 µg/mL | MIC80 (B. dermatitidis; Blastomyces dermatitidis isolate BD3): 0.5 µg/mL (≈ 1.43 µM) | polymer efficacy against filamentous fungi, 100% (Fusarium oxysporum; F. oxysporum FO1, Blood): 4 | polymer efficacy against filamentous fungi, 100% (Fusarium oxysporum; F. oxysporum FO2, Bone): 4 | polymer efficacy against filamentous fungi, 100% (Fusarium oxysporum; F. oxysporum FO3, Blood): >16 | MIC (Fusarium oxysporum; Fusarium oxysporum isolate FO1): 4 µg/mL (≈ 11.5 µM) | MIC (Fusarium oxysporum; Fusarium oxysporum isolate FO2): 4 µg/mL (≈ 11.5 µM) | MIC (Fusarium oxysporum; Fusarium oxysporum isolate FO3): > 16 µg/mL | MIC80 (Coccidioides spps.; Coccidioides sp. isolate Cocci 1): 0.25 µg/mL (≈ 0.716 µM) | MIC80 (Coccidioides spps.; Coccidioides sp. isolate Cocci 2): 0.125 µg/mL (≈ 0.358 µM) | MIC80 (Coccidioides spps.; Coccidioides sp. isolate Cocci 3): 0.06 µg/mL (≈ 0.172 µM) | MIC80 (Coccidioides spps.; Coccidioides sp. isolate Cocci 5): 0.125 µg/mL (≈ 0.358 µM) | MIC80 (Coccidioides spps.; Coccidioides sp. isolate Cocci 6): 0.25 µg/mL (≈ 0.716 µM) | MIC80 (Coccidioides spps.; Coccidioides sp. isolate Cocci 7): 0.125 µg/mL (≈ 0.358 µM) | MIC80 (Coccidioides spps.; Coccidioides sp. isolate Cocci 8): 0.125 µg/mL (≈ 0.358 µM) | MIC80 (Coccidioides spps.; Coccidioides sp. isolate Cocci 9): 1 µg/mL (≈ 2.86 µM) | MIC80 (Coccidioides spps.; Coccidioides sp. isolate Cocci 10): 0.06 µg/mL (≈ 0.172 µM) | polymer efficacy against filamentous fungi, 100% (Paecilomyces variotii; P. variotii QC, CLSI QC isolate for susceptibility testing): 0.125 | MIC (Paecilomyces variotii; Paecilomyces variotii, read-out: MIC100): 0.125 µg/mL (≈ 0.358 µM) | polymer efficacy against filamentous fungi, 100% (Aspergillus fumigatus [2]; A. fumigatus AF1, AF293, Lung): 1 | polymer efficacy against filamentous fungi, 100% (Aspergillus fumigatus [2]; A. fumigatus AF2, Clinical isolate, Azole resistant): 1 | polymer efficacy against filamentous fungi, 100% (Aspergillus fumigatus [2]; A. fumigatus AF3, Clinical isolate, Azole susceptible): 0.25 | MIC80 (H. capsulatum; Histoplasma capsulatum isolate HC1): ≤ 0.03 µg/mL | MIC80 (H. capsulatum; Histoplasma capsulatum isolate HC2): 0.25 µg/mL (≈ 0.716 µM) | MIC80 (H. capsulatum; Histoplasma capsulatum isolate HC3): 0.125 µg/mL (≈ 0.358 µM) | MIC80 (H. capsulatum; Histoplasma capsulatum isolate HC4): 0.06 µg/mL (≈ 0.172 µM) | MIC80 (H. capsulatum; Histoplasma capsulatum isolate HC5): 0.25 µg/mL (≈ 0.716 µM) | MIC80 (H. capsulatum; Histoplasma capsulatum isolate HC6): 0.125 µg/mL (≈ 0.358 µM) | MIC80 (H. capsulatum; Histoplasma capsulatum isolate HC7): 0.5 µg/mL (≈ 1.43 µM) | MIC80 (H. capsulatum; Histoplasma capsulatum isolate HC8): 0.25 µg/mL (≈ 0.716 µM) | MIC80 (H. capsulatum; Histoplasma capsulatum isolate HC9): 0.06 µg/mL (≈ 0.172 µM) | MIC80 (H. capsulatum; Histoplasma capsulatum isolate HC10): 0.06 µg/mL (≈ 0.172 µM) | polymer efficacy against filamentous fungi, 100% (Scedosporium prolificans; L. prolificans LP1, Chest Wound, Clinical isolate): >16 | MIC (Scedosporium prolificans; Lomentospora prolificans, S. prolificans): > 16 µg/mL | MIC100 (Scedosporium prolificans; Scedosporium prolificans isolate LP1): >16 µg/mL

CC[C@@H]([C@H](C)O)n1ncn(-c2ccc(N3CCN(c4ccc(OC[C@@H]5CO[C@@](Cn6cncn6)(c6ccc(F)cc6F)C5)cc4)CC3)cc2)c1=O [Posaconazole, posaconazole]
MIC (P. marneffei mold; RPMI 1640 (0.2% Glucose)): 0.5 µg/mL (≈ 0.713 µM) | MIC (P. marneffei mold; Talaromyces marneffei, RPMI 1640 (2% Glucose), read-out: MIC): 0.5 µg/mL (≈ 0.713 µM) | MIC (Aspergillus terreus [3]): 1.4 µM and 1 µg/mL | MIC (Aspergillus terreus [3]; 48 h): 1 µg/mL and 1.4 µM | MIC (Aspergillus terreus [4]): 1.0 µg/mL (≈ 1.43 µM) | polymer efficacy against filamentous fungi, 100% (Rhizopus arrhizus; R. arrhizus RA1, Nose Tissue): 0.5 | polymer efficacy against filamentous fungi, 100% (Rhizopus arrhizus; R. arrhizus RA2, Tissue Upper Extremity): 0.5 | polymer efficacy against filamentous fungi, 100% (Rhizopus arrhizus; R. arrhizus RA3, Palate Tissue): 0.5 | MIC (Rhizopus arrhizus; Rhizopus arrhizus isolate RA1): 0.5 µg/mL (≈ 0.713 µM) | MIC100 (Rhizopus arrhizus; Rhizopus arrhizus isolate RA2): 0.5 µg/mL (≈ 0.713 µM) | MIC100 (Rhizopus arrhizus; Rhizopus arrhizus isolate RA3): 0.5 µg/mL (≈ 0.713 µM) | MIC (Aspergillus spp.): ~1 µM (≈ 0.701 µg/mL) | FICazole (Aspergillus fumigatus [5]; 08-12-12-13 Cyp51 [TR34/L98H], POS with MM:TM): 1.000 | FICazole (Aspergillus fumigatus [5]; 08-31-08-91 Cyp51 [TR34/L98H], POS with MM:TM, listed as POS): 0.500 and 0.250 | FICazole (Aspergillus fumigatus [5]; 08-36-03-25 Cyp51 [TR34/L98H], POS with MM:TM, listed as POS): 0.500 and 0.474 | FICazole (Aspergillus fumigatus [5]; 12-7505220 Cyp51 [TR34/L98H], POS with MM:TM, listed as POS): 0.240 and 0.263 | FICazole (Aspergillus fumigatus [5]; AF293, POS with MM:TM): 0.21 | FICazole (Aspergillus fumigatus [5]; AF293, POS with MM:TM, listed as POS): 0.25 | MIC (Aspergillus fumigatus [5]; 48 h, CEA10, MM:TM with Posaconazole, single agent, 48 h, read-out: MIC Alone): 0.7 µM | MIC (Aspergillus fumigatus [5]; 48 h, CEA10, POS as single agent, 35° C.): 0.75 µg/mL | MIC (Aspergillus fumigatus [5]; 48 h, F11628, POS as single agent, 35° C.): 48 µg/mL and 68.5 µM | MIC (Aspergillus fumigatus [5]; 48 h, F16216, POS as single agent, 35° C.): 2 µg/mL and 2.85 µM | MIC (Aspergillus fumigatus [5]; [7]): 0.5 µg/mL | MIC (Aspergillus fumigatus [5]; [8]): 48 µg/mL | MIC (Aspergillus fumigatus [5]; [9]): 1.75 µg/mL | MIC Combined (Aspergillus fumigatus [5]; CEA10, MM:TM with Posaconazole in combination, 48 h): 0.1 µM | MIC azole combination (Aspergillus fumigatus [5]; CEA10, 48 h, 35° C., listed as POS): 0.13 μg/mL and 0.19 μM | FICazole (Aspergillus fumigatus [5]; CEA10, POS with MM:TM, listed as POS): 0.173 and 0.250 and 0.200 | FICazole (Aspergillus fumigatus [5]; D5 Cyp51 [G54E], POS with MM:TM, listed as POS): 0.125 and 0.063 | FICazole (Aspergillus fumigatus [5]; D7 Cyp51 [WT], POS with MM:TM): 0.263 | MIC azole combination (Aspergillus fumigatus [5]; F11628, 48 h, 35° C.): 0.13 µM | FICazole (Aspergillus fumigatus [5]; F11628, POS with MM:TM, listed as POS): 0.002 and 0.001 | MIC azole combination (Aspergillus fumigatus [5]; F16216, 48 h, 35° C.): 2.14 µM | FICazole (Aspergillus fumigatus [5]; [7]): 0.200 | FICazole (Aspergillus fumigatus [5]; [8]): 0.001 | FICazole (Aspergillus fumigatus [5]; [9]): 0.571 | increase in efficacy in the presence of MM:TM (Aspergillus fumigatus [5]; azole-resistant strain F11628): > 600 fold | MIC (Aspergillus fumigatus [6]; 48 h, A. fumigatus AF293, visually, 1 × 10^5 cells/mL, 35° C.): 2 µg/mL and 2.9 µM | MIC (Aspergillus fumigatus [6]; 48 h, A. fumigatus CEA10, visually, 1 × 10^5 cells/mL, 35° C.): 0.5 µg/mL and 0.7 µM | MIC (Aspergillus fumigatus [6]; 48 h, A. fumigatus F11628, visually, 1 × 10^5 cells/mL, 35° C.): > 32 µg/mL and > 45.7 µM | MIC (Aspergillus fumigatus [6]; 48 h, A. fumigatus F16216, visually, 1 × 10^5 cells/mL, 35° C.): 1.7 µg/mL and 2.5 µM | MIC (Aspergillus fumigatus [6]; A. fumigatus AF293): 2.9 µM | MIC (Aspergillus fumigatus [6]; A. fumigatus AF293, RPMI 1640 (0.2% Glucose), 1.00×10^5 cells/mL, 35° C.): 2 µg/mL | MIC (Aspergillus fumigatus [6]; A. fumigatus AF293, RPMI 1640 (2% Glucose), 1.00×10^5 cells/mL, 35° C.): 1 µg/mL | MIC (Aspergillus fumigatus [6]; A. fumigatus CEA10): 0.7 µM | MIC (Aspergillus fumigatus [6]; A. fumigatus CEA10, RPMI 1640 (0.2% Glucose), 1.00×10^5 cells/mL, 35° C.): 0.5 µg/mL | MIC (Aspergillus fumigatus [6]; A. fumigatus CEA10, RPMI 1640 (2% Glucose), 1.00×10^5 cells/mL, 35° C.): 0.5 µg/mL | MIC (Aspergillus fumigatus [6]; A. fumigatus F11628): > 45.6 µM | MIC (Aspergillus fumigatus [6]; A. fumigatus F11628, RPMI 1640 (0.2% Glucose), 1.00×10^5 cells/mL, 35° C.): > 32 µg/mL | MIC (Aspergillus fumigatus [6]; A. fumigatus F11628, RPMI 1640 (2% Glucose), 1.00×10^5 cells/mL, 35° C.): > 32 µg/mL | MIC (Aspergillus fumigatus [6]; A. fumigatus F16216): 2.5 µM | MIC (Aspergillus fumigatus [6]; azole resistant strain F11628): > 45 µM | MIC (Aspergillus fumigatus [6]; strain F16216): 2.5 µM

CC1(C)S[C@@H]2[C@H](NC(=O)[C@H](N)c3ccccc3)C(=O)N2[C@H]1C(=O)O [Ampicillin]
P. murina % reduction in ATP/vehicle control (P. murina; 10 ug/mL, 24 hour): 0% | P. murina % reduction in ATP/vehicle control (P. murina; 10 ug/mL, 48 hr): 0.9% | P. murina % reduction in ATP/vehicle control (P. murina; 10 ug/mL, 72 hr): 0% | P. carinii % reduction in ATP/vehicle control (P. carinii; 10 ug/mL, 24 hour): 12.28% | P. carinii % reduction in ATP/vehicle control (P. carinii; 10 ug/mL, 48 hr): 0% | P. carinii % reduction in ATP/vehicle control (P. carinii; 10 ug/mL, 72 hr): 2.65%
